Results taken from US11318115B2, “Oral pharmaceutical composition of Tecovirimat and preparation method thereof” (priority 2016, dated 2022).
In brackets after ≈: the same amount, converted by molar mass. Like-named read-outs stand apart in the source and are kept apart here.

Experiments:
[1] = In vitro dissolution in water (ChP 2015, 0931 Method II, 100 rpm); type: physicochemical; details: within 60 min, 1000 ml water, FIG. 2
Experimental: Experimental method: 1000 ml water was used as dissolution medium, and according to the Dissolution Test (Pharmacopoeia of the People's Republic of China (2015 Edition), General Notices, 0931 Method II), the operation was carried out at a rotation rate of 100 rpm, and a solution (5 ml) was taken at 5, 10, 15, 30, 45, and 60 min, respectively, and was filtrated through a 0.45 μm microporous membrane, to obtain a test solution; and Tecovirimat (bulk drug powder, 5 mg) as a reference was accurately weighed, and placed in a 100 ml volumetric flask, and the medium for dissolution was added to a final volume of 100 ml, thereby obtaining a reference solution. By high performance liquid chromatography, the peak area of the test solution and the reference solution were measured at 224 nm. The dissolution amounts at different time points was calculated by an external standard method, and the cumulative dissolution curves were plotted.

[2] = cited from earlier work
[3] = cited from earlier work; remark: listed apart in the source
physchem = type: physicochemical; details: aqueous with cosolvent or surfactant or cyclodextrin, thermodynamic from solid
Experimental: Excess amounts of Tecovirimat (bulk drug powder) was added to an aqueous solution comprising meglumine and cyclodextrin at different ratios relative to each other to form a suspension. The suspension was placed in a constant-temperature incubation shaker, and was shaken at a temperature of 25±1° C., 37±1° C. and 60±1° C. for 72 h. After reaching equilibrium, the suspension was filtered through a 0.45 μm hydrophilic filter membrane to obtain a filtrate. After the filtrate was properly diluted with an acetonitrile-water (50:50, v/v) solution, the absorbance was measured at 224 nm, and the solubility of Tecovirimat was calculated. The corresponding solubility curve was plotted by using the solubility of the drug as the ordinate, and using the concentration of the cyclodextrin and/or meglumine as the abscissa.

O=C(NN1C(=O)[C@@H]2[C@@H]3C=C[C@@H]([C@H]4C[C@@H]34)[C@@H]2C1=O)c1ccc(C(F)(F)F)cc1 [Tecovirimat, 4-trifluoromethyl-N-(3,3a, 4,4a, 5,5a, 6,6a-octahydro-1,3-dioxo-4,6-ethenocycloprop [f]isoindol-2 (1H)-yl)-benzamide]
dissolution [1]: < 5% | water solubility [2]: less than 0.003 mg/ml | solubility ([3]; 20%-40% (w/v) hydroxypropyl-β-cyclodextrin (HP-β-CD), 37° C.): 1.5 to 11 mg/mL | maximal solubility ([3]; 40% (w/v) HP-β-CD, 70° C.): 21.23 mg/mL | effect of cosolvent (PEG400) or nonionic surfactant (Tween 80) on solubility in HP-β-CD ([3]; HP-β-CD plus PEG400 or Tween 80): cannot further improve the solubility | solubility (physchem; 25 °C, cyclodextrin 20% (w/v) to 40% (w/v) alone, 25° C., FIG. 1(A), read-out: solubility of Tecovirimat in water): 5 to 15 mg/mL (≈ 13.3 to 39.9 mM) | solubility (physchem; 25 °C, meglumine 2% (w/v) to 10% (w/v) alone, 25° C., FIG. 1(B), read-out: solubility of Tecovirimat in water): 2 to 7 mg/mL (≈ 5.31 to 18.6 mM) | solubility (physchem; 25 °C, meglumine 5% (w/v) plus cyclodextrin 20% (w/v) to 40% (w/v), 25° C., FIG. 1(C), read-out: solubility of Tecovirimat in water): 20 to 80 mg/mL | solubility (physchem; 37 °C, cyclodextrin 20% (w/v) to 40% (w/v) alone, 37° C., FIG. 1(A), read-out: solubility of Tecovirimat in water): 5 to 18 mg/mL (≈ 13.3 to 47.8 mM) | solubility (physchem; 37 °C, meglumine 2% (w/v) to 10% (w/v) alone, 37° C., FIG. 1(B), read-out: solubility of Tecovirimat in water): 2 to 9 mg/mL (≈ 5.31 to 23.9 mM) | solubility (physchem; 37 °C, meglumine 5% (w/v) plus cyclodextrin 20% (w/v) to 40% (w/v), 37° C., FIG. 1(C), read-out: solubility of Tecovirimat in water): 30 to 100 mg/mL | solubility (physchem; 60 °C, cyclodextrin 20% (w/v) to 40% (w/v) alone, 60° C., FIG. 1(A), read-out: solubility of Tecovirimat in water): 5 to 20 mg/mL (≈ 13.3 to 53.1 mM) | solubility (physchem; 60 °C, meglumine 2% (w/v) to 10% (w/v) alone, 60° C., FIG. 1(B), read-out: solubility of Tecovirimat in water): 2 to 10 mg/mL (≈ 5.31 to 26.6 mM) | solubility (physchem; 60 °C, meglumine 5% (w/v) plus cyclodextrin 20% (w/v) to 40% (w/v), 60° C., FIG. 1(C), read-out: solubility of Tecovirimat in water): 50 to 150 mg/mL | solubility (physchem; ternary solubilizing composition: Tecovirimat, cyclodextrin, additive (e.g. meglumine), read-out: maximal solubility): ≤ 152 mg/mL
